Results as given in PMC9573605, “Exploring Nitric Oxide (NO)-Releasing Celecoxib Derivatives as Modulators of Radioresponse in Pheochromocytoma Cells” (Molecules, 2022).

What was measured:
[1] = Lipophilicity logD7.4 by HPLC method; assay type: physicochemical; details: HPLC retention on ODP-50 4B column (Shodex Asahipak), phosphate buffer pH 7.4
Protocol: The lipophilicity of all synthesized compounds was determined as logD7.4, HPLC value by an HPLC method originally described by Donovan and Pescatore.
The logD7.4HPLC value was determined as previously reported by us utilizing an HPLC method originally described by Donovan and Pescatore.

[2] = Fluorometric NO release assay (Griess assay); assay type: physicochemical; details: 24 h, 37 °C, relative to initial molar amount of compound
Protocol: The nitric oxide releasing properties of the nitroester-derivatives 5a–d, 5f, and 6a–d were evaluated using a fluorometric Griess assay in the presence and absence of cysteine to determine thiol-dependent and spontaneous release of nitric oxide (Figure 3).
Nitric oxide release of compounds within 24 h at 37 °C was measured using the fluorometric nitric oxide microplate assay kit ab65327 (Abcam, Cambridge, UK). For measurement of spontaneous release, 1.8 nmol of compounds were incubated in 75 µL Dulbecco’s PBS containing 0.05% v/v residual DMSO and 2.5 mM DTPA (pH = 7.1) for 24 h at 37 °C. Thiol-dependent release was measured accordingly in presence of 2.5 mM cysteine. Two series of nitrate standards were prepared (0.2−1 nmol) in 75 µL incubation buffer, in presence or absence of cysteine, respectively. According to the manufacturer’s instructions, all nitrate content in samples and standards was enzymatically converted into nitrite through incubation with nitrate reductase for 2 h at room temperature, and the resulting nitrite content (total nitric oxide) was determined through reaction with 2,3-diaminonaphthalene followed by measurement of fluorescence intensity at λex/em = 360/450 nm using a microplate reader. Nitrite content in samples was calculated from linear regression of standards and expressed as relative nitric oxide release (%) normalized to the initial molar amount of compound. NONOate served as positive control.
Figure 3 Spontaneous and thiol-dependent NO^• release from NO-COXIBs; measured using fluorometric Griess assay (n = 2); relative release indicates the percentage of soluble nitrogen species (nitrate + nitrite) detected in the incubation buffer after 24 h compared to the initial molar amount of compounds; NO^• release of NONOate (positive control) exceeded the maximum detection limit; data presented as mean ± range.

[3] = tested on: MPC-HIF2α tumor spheroids; experiment: Spheroid regrowth assay with external X-ray irradiation; assay type: cell-based, mouse; details: X-ray 15 Gy; 10 µM compound added 2 h post irradiation; controls 83%
Protocol: (§1) As a first pilot study, growth responses of MPC-HIF2α spheroids were investigated after two different radiation treatments such as single-dose external beam irradiation (X-ray) and incubation with [^177Lu]LuCl3, respectively. NO-COXIBs were tested at 10 µM for additional effects on radiation treatments against a vehicle-treated control (w/o) and celecoxib (Ce).
The log2-fold change in spheroid diameter is given as a standardized parameter for spheroid growth, which is positive for growing, near zero for stagnating and negative for shrinking spheroids. Furthermore, regrowth probabilities are given as a parameter to compare how many of the overall studied spheroids in one group recovered within 14 days. Radioprotective effects occurred when compounds were added 2 h before irradiation. In this setup, all compounds accelerated the increase in spheroid size during the regrowth phase compared to controls (Figure 5A, upper panel). Regrowth probabilities of 67–100% under NO-COXIB treatment remained however similar to controls (83%). Radiosensitizing effects occurred when compounds were added 2 h post irradiation. In this setup, all compounds decelerated the increase in spheroid size during the regrowth phase compared to controls.
(§2) Genetically modified mouse pheochromocytoma (MPC) cells expressing a codon-optimized Epas1 gene (encoding HIF2α) were cultured as three-dimensional tumor spheroids as published elsewhere. External X-ray beam radiation treatment and [^177Lu]LuCl3 radionuclide treatment was performed as reported previously with some modifications. In brief, spheroids were irradiated with a 200 kV photon beam using a Maxishot X-ray system equipped with a Y.TU/320-D03 tube (YXLON, Hamburg, Germany), growth of spheroids (n = 6) with diameters between 300−400 µm was measured in response to one fixed radiation dose, 15 Gy for X-ray treatment, and 0.25 MBq/mL of [^177Lu]LuCl3 for radionuclide treatment corresponding to a cumulative dose of approximately 2 Gy delivered for 6 days. The applied radiation doses were selected based on the half-maximal spheroid control doses (SCD50) as previously determined for MPC HIF2α spheroids by us. Spheroids were considered as regrown at 100 µm increase in diameter compared to treatment start or at a diameter growth rate of 15 µm per day. Results are reported as spheroid regrowth probability (%).
(§3) Figure 5 Effects of NO-COXIBs on radiation treatments of MPC-HIF2α tumor spheroids. (A) Growth responses to X-ray treatment with a radiation dose of 15 Gy in combination with 10 µM NO-COXIBs added to the medium at indicated time points before or after irradiation. (B) Growth responses to [^177Lu]LuCl3 treatment with an initial activity concentration of 0.25 MBq/mL in combination with NO-COXIBs; log2 fold changes in diameter indicate the number of diameter doublings compared to treatment start; 14-day regrowth probability indicates the fraction of spheroids able to regrow within 14 days after treatment start; (black arrows) time point or duration of radiation treatment; (w/o) vehicle controls are shown as black lines; (Ce) celecoxib.

[4] = tested on: MPC-HIF2α tumor spheroids; experiment: Spheroid regrowth assay with [177Lu]LuCl3 treatment; assay type: cell-based, mouse; details: 10 µM compound with 0.25 MBq [177Lu]LuCl3 for six days; for 14-day regrowth probability: controls 50%
Source text: Radionuclide therapy is a fast-evolving treatment modality gaining more importance in treating cancer. For treatment of pheochromocytomas and paragangliomas, in particular, somatostatin type 2 receptor-targeted radionuclide therapy with [^177Lu]Lu-(Tyr^3)octreotate is currently investigated in clinical controlled trials (e.g., NCT04029428, NCT03923257, NCT03206060). To assess the additional effects of NO-COXIBs on the outcome of Lu-177 therapy, a simplified in vitro setup was used here, where MPC-HIF2α tumor spheroids were treated with 10 µM of the compounds and simultaneously 0.25 MBq of [^177Lu]LuCl3 for six days.
as §2, §3

[5] = tested on: MPC-HIF2a spheroids; experiment: Growth of non-irradiated tumor spheroids; assay type: cell-based, mouse; details: 10 µM compound, linear regression between 0 and 9 days
Protocol: as §1
4. Growth-rate of tumor spheroids in the presence of NO -COXIBS without radiation treatment
Compound Diameter growth rate
Table S2. Effects of NO-COXIBs on spheroid growth; diameter growth rates of non-irradiated MPC-HIF2a spheroids in presence of 10 µM of compounds determined from linear regression between 0 and 9 days after treatment start; (w/o) vehicle control treated with DMSO

[6] = tested on: A2058 cells; set-up: method as in PMID 26081289; details: 10 µM, DMSO control 6.6 Gy; cited from earlier work
[7] = tested on: Mel-Juso cells; set-up: method as in PMID 26081289; details: 10 µM, DMSO control 4.2 Gy; cited from earlier work
[8] = set-up: method as in PMID 25547413; details: cited from earlier work

Row | chromatographic logD [1] | thiol-dependent NO release ([2]; 2.5 mM cysteine) | spontaneous NO release ([2]; absence of cysteine) | SMILES | 14-day regrowth probability [3] [%] | growth response (spheroid size) ([4]; compared to controls) | 14-day regrowth probability [4] | Diameter growth rate ± SEM [5] [µm/day] | required radiation dose for 10% survival [6] [Gy] | required radiation dose for 10% survival [7] [Gy] | scavenging effects on OH•, O2•−, and OCl- [8]
1 | 3.76 | 29–53% | 10–22% | Cc1ccc(-c2c(Cl)c(CO[N+](=O)[O-])nn2-c2ccc(S(N)(=O)=O)cc2)cc1 [5a, [4-Chloro-1-(4-sulfamoylphenyl)-5-(p-tolyl)-1H-pyrazol-3-yl]methyl nitrate] | 17 | prevented spheroids from shrinking in size | 60–80% | 54.1 ± 5.2 | 5.2 | 3.2 | –
2 | – | – | – | Cc1ccc(-c2cc(C(F)(F)F)nn2-c2ccc(S(N)(=O)=O)cc2)cc1 [celecoxib] | 0 | – | 40% | 57.3 ± 4.0 | – | – | did not show any scavenging effects
